Measured values taken from paper PMC4080982, “Interactions of antagonists with subtypes of inositol 1,4,5-trisphosphate (IP3) receptor” (British Journal of Pharmacology, 2014).
pIC50: −log10 of the molar value.

Assays:
mouse IP3R2 = target: T1, mouse IP3R2 (Mus musculus, UniProt Q9Z329); assay: IP3-evoked Ca^2+ release from permeabilized DT40-IP3R2 cells; assay type: cell-based; details: IP3R2
T1 construct: different for NTs (NT2 > NT1 > > NT3) and full-length IP3Rs (IP3R3 > IP3R1 ≥ IP3R2); expressed in transfected cells
T1 sequence (Q9Z329 whole entry): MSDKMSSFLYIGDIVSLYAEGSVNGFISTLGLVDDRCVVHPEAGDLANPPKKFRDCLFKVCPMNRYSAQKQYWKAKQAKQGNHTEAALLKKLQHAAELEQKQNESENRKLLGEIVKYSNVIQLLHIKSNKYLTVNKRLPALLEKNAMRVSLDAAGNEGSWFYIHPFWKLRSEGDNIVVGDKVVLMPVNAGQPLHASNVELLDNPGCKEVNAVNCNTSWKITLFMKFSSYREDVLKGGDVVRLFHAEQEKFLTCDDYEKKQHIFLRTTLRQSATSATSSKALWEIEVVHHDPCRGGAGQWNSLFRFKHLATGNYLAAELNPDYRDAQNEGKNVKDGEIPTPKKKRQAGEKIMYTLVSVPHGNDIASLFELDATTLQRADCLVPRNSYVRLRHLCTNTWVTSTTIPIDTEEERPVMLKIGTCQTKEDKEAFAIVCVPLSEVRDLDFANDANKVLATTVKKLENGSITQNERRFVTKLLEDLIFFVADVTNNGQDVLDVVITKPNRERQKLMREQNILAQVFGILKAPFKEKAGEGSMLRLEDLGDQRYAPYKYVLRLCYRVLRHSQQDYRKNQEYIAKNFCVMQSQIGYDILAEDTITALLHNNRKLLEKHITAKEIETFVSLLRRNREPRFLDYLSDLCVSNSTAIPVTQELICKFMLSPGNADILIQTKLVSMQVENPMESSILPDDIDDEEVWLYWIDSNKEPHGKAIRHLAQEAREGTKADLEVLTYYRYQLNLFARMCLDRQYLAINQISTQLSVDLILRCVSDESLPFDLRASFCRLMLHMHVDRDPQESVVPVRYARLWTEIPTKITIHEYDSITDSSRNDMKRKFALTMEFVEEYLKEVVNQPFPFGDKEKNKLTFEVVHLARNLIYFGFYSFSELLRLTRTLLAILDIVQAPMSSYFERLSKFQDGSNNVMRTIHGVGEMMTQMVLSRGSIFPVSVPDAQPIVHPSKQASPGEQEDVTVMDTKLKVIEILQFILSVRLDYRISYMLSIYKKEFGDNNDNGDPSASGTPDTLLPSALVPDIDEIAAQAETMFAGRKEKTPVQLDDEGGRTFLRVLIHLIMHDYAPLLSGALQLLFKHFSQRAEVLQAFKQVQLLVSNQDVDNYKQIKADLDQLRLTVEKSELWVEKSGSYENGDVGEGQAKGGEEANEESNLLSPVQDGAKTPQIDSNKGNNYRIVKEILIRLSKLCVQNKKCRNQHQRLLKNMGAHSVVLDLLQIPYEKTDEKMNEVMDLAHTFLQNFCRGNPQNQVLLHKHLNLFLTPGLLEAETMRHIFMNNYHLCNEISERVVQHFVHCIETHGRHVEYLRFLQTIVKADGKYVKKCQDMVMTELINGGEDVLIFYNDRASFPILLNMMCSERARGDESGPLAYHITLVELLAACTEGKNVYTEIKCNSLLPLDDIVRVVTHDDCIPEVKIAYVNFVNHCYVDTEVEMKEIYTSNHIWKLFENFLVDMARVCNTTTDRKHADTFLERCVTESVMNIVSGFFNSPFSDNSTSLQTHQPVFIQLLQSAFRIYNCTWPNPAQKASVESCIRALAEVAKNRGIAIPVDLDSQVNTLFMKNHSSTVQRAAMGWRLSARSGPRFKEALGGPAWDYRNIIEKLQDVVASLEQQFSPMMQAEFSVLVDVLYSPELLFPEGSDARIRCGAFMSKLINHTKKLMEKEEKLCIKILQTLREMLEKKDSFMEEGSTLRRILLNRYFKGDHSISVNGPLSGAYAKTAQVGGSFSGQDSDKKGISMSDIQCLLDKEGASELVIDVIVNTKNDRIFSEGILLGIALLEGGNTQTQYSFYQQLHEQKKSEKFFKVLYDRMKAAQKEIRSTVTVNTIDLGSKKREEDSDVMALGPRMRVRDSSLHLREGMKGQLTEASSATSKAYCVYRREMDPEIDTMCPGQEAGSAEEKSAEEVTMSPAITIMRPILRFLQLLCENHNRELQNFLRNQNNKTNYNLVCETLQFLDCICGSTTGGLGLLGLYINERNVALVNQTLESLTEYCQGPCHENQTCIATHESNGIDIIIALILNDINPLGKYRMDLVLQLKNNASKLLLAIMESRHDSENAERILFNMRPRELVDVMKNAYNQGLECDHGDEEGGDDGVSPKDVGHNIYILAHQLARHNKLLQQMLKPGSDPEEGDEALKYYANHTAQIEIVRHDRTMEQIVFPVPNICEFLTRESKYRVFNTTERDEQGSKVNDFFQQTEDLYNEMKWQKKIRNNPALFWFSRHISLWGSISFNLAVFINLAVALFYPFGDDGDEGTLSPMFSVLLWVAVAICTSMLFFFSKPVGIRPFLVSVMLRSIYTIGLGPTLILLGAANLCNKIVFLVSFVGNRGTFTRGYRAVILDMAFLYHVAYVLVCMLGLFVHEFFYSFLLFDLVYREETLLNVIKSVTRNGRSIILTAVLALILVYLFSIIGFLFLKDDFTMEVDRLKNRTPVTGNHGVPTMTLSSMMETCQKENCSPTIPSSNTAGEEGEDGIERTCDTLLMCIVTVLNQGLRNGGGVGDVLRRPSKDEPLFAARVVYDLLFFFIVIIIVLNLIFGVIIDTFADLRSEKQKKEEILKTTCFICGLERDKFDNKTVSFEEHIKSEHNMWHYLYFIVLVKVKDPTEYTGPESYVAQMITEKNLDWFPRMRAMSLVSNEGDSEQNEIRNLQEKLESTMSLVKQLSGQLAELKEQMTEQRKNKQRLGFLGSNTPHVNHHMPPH
Experimental: (§1) We used DT40 cells lacking endogenous IP3Rs (Sugawara et al., [1997]), but stably expressing rat IP3R1 (GenBank accession number GQ233032.1; Pantazaka and Taylor, [2011]), mouse IP3R2 (GU980658.1; Tovey et al., [2010]) or rat IP3R3 (GQ233031.1; Rahman et al., [2009]). Cells were grown in suspension in RPMI 1640 medium supplemented with 10% FBS, 1% heat-inactivated chicken serum, 2 mM glutamine and 50 μM 2-mercaptoethanol at 37°C in humidified air containing 5% CO2. Cells were used or passaged when they reached a density of ∼1.5 × 10^6 cells mL^−1.
(§2) A low-affinity Ca^2+ indicator trapped within the ER of permeabilized DT40 cells was used to measure IP3-evoked Ca^2+ release (Tovey et al., [2006]; Saleem et al., [2012]). Briefly, the ER was loaded with indicator by incubating cells (∼5 × 10^7 mL^−1) in the dark with Mag-fluo-4AM (20 μM) in HEPES-buffered saline (HBS) containing 0.02% (v/v) Pluronic F127 for 1 h at 22°C. HBS had the following composition: 135 mM NaCl, 5.9 mM KCl, 11.6 mM HEPES, 1.5 mM CaCl2, 11.5 mM glucose, 1.2 mM MgCl2, pH 7.3. After permeabilization of the plasma membrane with saponin (10 μg·mL^−1, 4 min, 37°C) in Ca^2+-free cytosol-like medium (CLM), permeabilized cells were washed (650× g, 2 min) and resuspended (∼10^7 mL^−1) in Mg^2+-free CLM containing carbonyl cyanide 4-(trifluoromethoxy) phenylhydrazone (FCCP, 10 μM) to inhibit mitochondria, and supplemented with CaCl2 to give a final free [Ca^2+] of 220 nM after addition of 1.5 mM MgATP. Ca^2+-free CLM had the following composition: 2 mM NaCl, 140 mM KCl, 1 mM EGTA, 20 mM PIPES, 2 mM MgCl2, pH 7.0. Permeabilized cells were then distributed into 96-well plates (50 μL, 5 × 10^5 cells per well), centrifuged (300× g, 2 min) and used for experiments at 20°C. Addition of MgATP (1.5 mM) allowed Ca^2+ uptake by the ER, which was monitored at intervals of ∼1 s using a FlexStation-3 plate reader (MDS Analytical Devices, Berkshire, UK; Tovey et al., [2006]). After 2 min, when the ER had loaded to steady-state with Ca^2+, IP3 was added with CPA (10 μM) to inhibit further Ca^2+ uptake. IP3-evoked Ca^2+ release was expressed as a fraction of that released by ionomycin (1 μM; Tovey et al., [2006]). Similar methods were used to measure IP3-evoked Ca^2+ release from intact or permeabilized HEK cells (Tovey et al., [2008]). The timings of antagonist additions are described in the figure legends. The affinity of each competitive antagonist (pKD) was determined from the intercept on the abscissa of the Schild plot.
(§3) Concentration–effect relationships were fitted to Hill equations using Prism (version 5.0, GraphPad, San Diego, CA, USA), from which Hill coefficients (h), the fraction of the intracellular Ca^2+ stores released by a maximally effective concentrations of IP3, and pEC50 values were calculated.

HEK cells [1] = assay: Carbachol-evoked Ca^2+ signals in intact HEK cells; assay type: cell-based; details: intact HEK cells; Xestospongin 10 μM for 30 min
Experimental: as §2

HEK cells [2] = assay: IP3-evoked Ca^2+ release from permeabilized HEK cells; assay type: cell-based; details: 5 min
Experimental: as §2, with “Ca^2+-free CLM had the following composition: 2 mM NaCl, 140 mM KCl, 1 mM EGTA, 20 mM PIPES, 2 mM MgCl2, pH 7.0. Permeabilized cells were then distributed into 96-well plates (50 μL, 5 × 10^5 cells per well), centrifuged (300× g, 2 min) and used for experiments at 20°C.” left out, “After 2 min, when the ER had loaded to steady-state with Ca^2+, IP3 was added with CPA (10 μM) to inhibit further Ca^2+ uptake.” left out, “Similar methods were used to measure IP3-evoked Ca^2+ release from intact or permeabilized HEK cells (Tovey et al., [2008]). The timings of antagonist additions are described in the figure legends.” left out

HEK cells [3] = assay: Steady-state Ca^2+ content of the intracellular stores of permeabilized HEK cells; assay type: cell-based; details: 5 min
Experimental: as §2, with “Ca^2+-free CLM had the following composition: 2 mM NaCl, 140 mM KCl, 1 mM EGTA, 20 mM PIPES, 2 mM MgCl2, pH 7.0. Permeabilized cells were then distributed into 96-well plates (50 μL, 5 × 10^5 cells per well), centrifuged (300× g, 2 min) and used for experiments at 20°C.” left out, “After 2 min, when the ER had loaded to steady-state with Ca^2+, IP3 was added with CPA (10 μM) to inhibit further Ca^2+ uptake.” left out, “Similar methods were used to measure IP3-evoked Ca^2+ release from intact or permeabilized HEK cells (Tovey et al., [2008]). The timings of antagonist additions are described in the figure legends.” left out

[4] = tested on: permeabilized DT40-IP3R1-3 cells; assay: Ca^2+ uptake and Ca^2+ content of the intracellular stores of permeabilized DT40 cells; assay type: cell-based; details: permeabilized DT40 cells, 5 min pre-incubation
Experimental: Briefly, the ER was loaded with indicator by incubating cells (∼5 × 10^7 mL^−1) in the dark with Mag-fluo-4AM (20 μM) in HEPES-buffered saline (HBS) containing 0.02% (v/v) Pluronic F127 for 1 h at 22°C. […] Ca^2+-free CLM had the following composition: 2 mM NaCl, 140 mM KCl, 1 mM EGTA, 20 mM PIPES, 2 mM MgCl2, pH 7.0. Permeabilized cells were then distributed into 96-well plates (50 μL, 5 × 10^5 cells per well), centrifuged (300× g, 2 min) and used for experiments at 20°C. […] After 2 min, when the ER had loaded to steady-state with Ca^2+, IP3 was added with CPA (10 μM) to inhibit further Ca^2+ uptake. […] The timings of antagonist additions are described in the figure legends. The affinity of each competitive antagonist (pKD) was determined from the intercept on the abscissa of the Schild plot.

rat IP3R1 = target: T2, rat IP3R1 (Rattus norvegicus, UniProt P29994); assay: IP3-evoked Ca^2+ release from permeabilized DT40-IP3R1 cells; assay type: cell-based; details: IP3R1
T2 construct: different for NTs (NT2 > NT1 > > NT3) and full-length IP3Rs (IP3R3 > IP3R1 ≥ IP3R2); expressed in transfected cells
Experimental: as §1, §2, §3

rat IP3R3 = target: T3, rat IP3R3 (Rattus norvegicus, UniProt Q63269); assay: IP3-evoked Ca^2+ release from permeabilized DT40-IP3R3 cells; assay type: cell-based; details: IP3R3
T3 construct: different for NTs (NT2 > NT1 > > NT3) and full-length IP3Rs (IP3R3 > IP3R1 ≥ IP3R2); expressed in transfected cells
Experimental: as §1, §2, §3

cerebellar microsomes = tested on: cerebellar microsomes; set-up: method as in Gafni et al., [1997]; details: ref Gafni et al., [1997], read-out: IC50, inhibition of IP3-evoked Ca^2+ release; cited from earlier work
HEK cells [5] = tested on: HEK cells; set-up: method as in Kurian et al., [2009]; details: Xestospongin C 10 μM for 30 min in Ca^2+-free medium, ref Kurian et al., [2009]; cited from earlier work
[6] = 10 µM, 5 min, purified (Gafni et al., 1997)
[7] = 10 µM, 5 min, source Calbiochem
[8] = 20 µM, 7 min, purified (Gafni et al., 1997)
[9] = 20 µM, 12 min, purified (Gafni et al., 1997)
[10] = Xestospongin 20 μM, pooled 7 and 12 min
[11] = Xestospongin 20 μM, pooled from 7 and 12 min pre-incubation
[12] = 5 µM, 5 min, purified (Gafni et al., 1997)
[13] = Xestospongin C 5–20 μM from either source, 5–12 min before IP3

## O[C@@]12CCCCCC[C@H]3CCN4CCC[C@H](CCCCCC[C@H]5CCN(CCC1)[C@@H]2O5)[C@H]4O3 [Xestospongin D]
Mouse IP3R2; [6]
  ΔMax: 2 ± 3%
  ΔpEC50: -0.07 ± 0.07
Mouse IP3R2; [7]
  ΔMax: 2 ± 4%
  ΔpEC50: 0.25 ± 0.22
Mouse IP3R2; [8]
  ΔMax: 5 ± 2%
  ΔpEC50: -0.06 ± 0.04
Mouse IP3R2; [9]
  ΔMax: 11 ± 5%
  ΔpEC50: -0.23 ± 0.06
Mouse IP3R2; [10]
  ΔMax: 8 ± 3 %
  ΔpEC50: −0.15 ± 0.05
Mouse IP3R2; Xestospongin 20 μM, pooled 7 and 12 min, listed as XeD
  ΔpEC50: -0.15 ± 0.05
HEK cells [1]
  effect on Ca^2+ signals evoked by carbachol: no significant effect
HEK cells [2]; Xestospongin D 10 μM
  effect on Ca^2+ release evoked by IP3: no effect
HEK cells [3]; Xestospongin D 10 μM
  effect on Ca^2+ content of the intracellular stores: no effect
[4]; 10 μM purified Xestospongin D
  effect on Ca^2+ content of the intracellular stores: no effect
Rat IP3R1; [6]
  ΔMax: 15 ± 4 %
  ΔpEC50: -0.02 ± 0.10 M⁻¹
Rat IP3R1; [7]
  ΔMax: 17 ± 6 %
  ΔpEC50: 0.28 ± 0.13 M⁻¹
Rat IP3R1; [8]
  ΔMax: 18 ± 5 %
  ΔpEC50: 0.37 ± 0.11 M⁻¹
Rat IP3R1; [9]
  ΔMax: 18 ± 1 %
  ΔpEC50: 0.14 ± 0.12 M⁻¹
Rat IP3R1; [10]
  ΔMax: 18 ± 2 %
Rat IP3R1; [11]
  ΔpEC50: 0.26 ± 0.09 M
Rat IP3R1; Xestospongin D 10–20 μM from either source, 5–12 min
  effect on IP3-evoked Ca^2+ release: modest, but statistically significant
Rat IP3R3; [6]
  ΔMax: 8 ± 8%
  ΔpEC50: 0.16 ± 0.26 M⁻¹
Rat IP3R3; [7]
  ΔMax: 12 ± 1 %
  ΔpEC50: 0.03 ± 0.04 M⁻¹
Rat IP3R3; [8]
  ΔMax: 4 ± 2%
  ΔpEC50: 0.39 ± 0.10 M⁻¹
Rat IP3R3; [9]
  ΔMax: -1 ± 0%
  ΔpEC50: 0.03 ± 0.08 M⁻¹
Rat IP3R3; [10]
  ΔMax: 2 ± 2%
  ΔpEC50: 0.21 ± 0.10 M

## C1CCC[C@H]2CCCN3CC[C@@H](CCCCCC[C@@H]4CCCN5CC[C@@H](CC1)O[C@@H]45)O[C@@H]23 [Xestospongin C]
Mouse IP3R2; [12]
  ΔMax: 0 ± 4%
Mouse IP3R2; 5 µM, 5 min, source Calbiochem
  ΔMax: 5 ± 6%
Mouse IP3R2; [8]
  ΔMax: 2 ± 2%
Mouse IP3R2; [9]
  ΔMax: 1 ± 2%
Mouse IP3R2; [10]
  ΔMax: 1 ± 1%
Mouse IP3R2; [13]
  effect on IP3-evoked Ca^2+ release: no significant effect
Cerebellar microsomes
  pIC50: 6.45
HEK cells [1]
  effect on Ca^2+ signals evoked by carbachol: no significant effect
HEK cells [2]; Xestospongin C 5 μM
  effect on Ca^2+ release evoked by IP3: no effect
HEK cells [3]; Xestospongin C 5 μM
  effect on Ca^2+ content of the intracellular stores: no effect
[4]; 5 μM purified Xestospongin C
  effect on Ca^2+ content of the stores: no significant effect
Rat IP3R1; [12]
  ΔMax: 2 ± 2%
Rat IP3R1; 5 µM, 5 min, purified as described (Gafni et al., 1997)
  ΔpEC50: -0.12 ± 0.12 M⁻¹
Rat IP3R1; 5 µM, 5 min, source Calbiochem
  ΔMax: 2 ± 1%
  ΔpEC50: 0.09 ± 0.07 M⁻¹
Rat IP3R1; [8]
  ΔMax: 9 ± 3 %
  ΔpEC50: 0.08 ± 0.07 M⁻¹
Rat IP3R1; [9]
  ΔMax: 4 ± 3%
  ΔpEC50: 0.33 ± 0.18 M⁻¹
Rat IP3R1; [10]
  ΔMax: 6 ± 2 %
Rat IP3R1; [11]
  ΔpEC50: 0.21 ± 0.10 M
Rat IP3R1; [13]
  effect on IP3-evoked Ca^2+ release: no significant effect
Rat IP3R3; [12]
  ΔMax: 3 ± 14%
  ΔpEC50: 0.02 ± 0.09 M⁻¹
Rat IP3R3; 5 µM, 5 min, source Calbiochem
  ΔMax: 15 ± 7%
  ΔpEC50: -0.04 ± 0.11 M⁻¹
Rat IP3R3; [8]
  ΔMax: 1 ± 3%
  ΔpEC50: 0.15 ± 0.02 M⁻¹
Rat IP3R3; [9]
  ΔMax: 2 ± 2%
  ΔpEC50: 0.10 ± 0.05 M⁻¹
Rat IP3R3; [10]
  ΔMax: 1 ± 2%
  ΔpEC50: 0.12 ± 0.03 M
Rat IP3R3; [13]
  effect on IP3-evoked Ca^2+ release: no significant effect
HEK cells [5]
  effect on carbachol-evoked Ca^2+ signals: substantial, though incomplete, inhibition
